# Laboratory results taken from the RepoRT retention time repository (doi:10.1021/ac300829f).
# Assay: RP, Thermo Scientific Hypersil GOLD, 150 × 2.1 mm, 1.9 µm, 0.5 mL/min, estimated dead time 0.66 min; A: water + 0.1% formic acid, pH 3; B: acetonitrile + 0.1% formic acid, pH 3; gradient (min/%B) 0/0 2/0 13/100 15.5/100 19/0
# Details: stereoisomer not certain
row,SMILES,LC retention time
1,NC(CO)C(=O)O (stereo not given) [serine],0.9 min
2,CN(CC(=O)O)C(=N)N [creatine],1 min
3,O=C(C=Cc1ccc(O)c(O)c1)OC1CC(O)(C(=O)O)CC(O)C1O (stereo not given) [chlorogenic acid],5.5 min

# The next lines start with the values.
row,LC retention time,SMILES
1,6.3 min,O=C(OC1OC(C(=O)O)C(O)C(O)C1O)c1c[nH]c2ccccc12 (stereo not given) [3-indole carboxylic acid glucuronide]
2,1.1 min,Nc1ccnc(=O)[nH]1 [cytosine]
